Measured values published in the NIST ThermoML archive (doi:10.1016/j.fluid.2015.07.030).

Assay: refractive index (other wavelength) (dimensionless); xn = mol fraction of the nth substance listed
Details: 95.99 kPa, Liquid, Standard Abbe refractometry

OCCOCCOCCO [triethylene glycol] + O
Details | refractive index
303.15 K, Wavelength=587.6 nm, x2 = 0.8473 | 1.40803
303.15 K, Wavelength=587.6 nm, x2 = 0.8719 | 1.40124
303.15 K, Wavelength=587.6 nm, x2 = 0.8926 | 1.39369
303.15 K, Wavelength=587.6 nm, x2 = 0.9106 | 1.38817
303.15 K, Wavelength=587.6 nm, x2 = 0.9254 | 1.37798
303.15 K, Wavelength=587.6 nm, x2 = 0.9303 | 1.37934
303.15 K, Wavelength=587.6 nm, x2 = 0.9391 | 1.37533
303.15 K, Wavelength=587.6 nm, x2 = 0.951 | 1.36879
303.15 K, Wavelength=587.6 nm, x2 = 0.9599 | 1.36294
303.15 K, Wavelength=587.6 nm, x2 = 0.9708 | 1.35503
303.15 K, Wavelength=587.6 nm, x2 = 0.979 | 1.35005
303.15 K, Wavelength=587.6 nm, x2 = 0.9867 | 1.34407
303.15 K, Wavelength=587.6 nm, x2 = 0.9936 | 1.33792
303.15 K, Wavelength=589.3 nm, x2 = 0 | 1.45267
303.15 K, Wavelength=589.3 nm, x2 = 0.1056 | 1.45131
303.15 K, Wavelength=589.3 nm, x2 = 0.2069 | 1.44969
303.15 K, Wavelength=589.3 nm, x2 = 0.3104 | 1.44605
303.15 K, Wavelength=589.3 nm, x2 = 0.4844 | 1.44261
303.15 K, Wavelength=589.3 nm, x2 = 0.5016 | 1.44163
303.15 K, Wavelength=589.3 nm, x2 = 0.5952 | 1.43507
303.15 K, Wavelength=589.3 nm, x2 = 0.6016 | 1.43519
303.15 K, Wavelength=589.3 nm, x2 = 0.6788 | 1.42871
303.15 K, Wavelength=589.3 nm, x2 = 0.7835 | 1.41945
303.15 K, Wavelength=589.3 nm, x2 = 0.8184 | 1.41428
303.15 K, Wavelength=589.3 nm, x2 = 0.8473 | 1.40797
303.15 K, Wavelength=589.3 nm, x2 = 0.8719 | 1.40118
303.15 K, Wavelength=589.3 nm, x2 = 0.8926 | 1.39363
303.15 K, Wavelength=589.3 nm, x2 = 0.9106 | 1.38811
303.15 K, Wavelength=589.3 nm, x2 = 0.9254 | 1.37792
303.15 K, Wavelength=589.3 nm, x2 = 0.9303 | 1.37928
303.15 K, Wavelength=589.3 nm, x2 = 0.9391 | 1.37531
303.15 K, Wavelength=589.3 nm, x2 = 0.951 | 1.36873
303.15 K, Wavelength=589.3 nm, x2 = 0.9599 | 1.36288
303.15 K, Wavelength=589.3 nm, x2 = 0.9708 | 1.35497
303.15 K, Wavelength=589.3 nm, x2 = 0.979 | 1.34999
303.15 K, Wavelength=589.3 nm, x2 = 0.9867 | 1.34402
303.15 K, Wavelength=589.3 nm, x2 = 0.9936 | 1.33786
303.15 K, Wavelength=632.8 nm, x2 = 0 | 1.4511
303.15 K, Wavelength=632.8 nm, x2 = 0.1056 | 1.44977
303.15 K, Wavelength=632.8 nm, x2 = 0.2069 | 1.44815
303.15 K, Wavelength=632.8 nm, x2 = 0.3104 | 1.44452
303.15 K, Wavelength=632.8 nm, x2 = 0.4844 | 1.44109
303.15 K, Wavelength=632.8 nm, x2 = 0.5016 | 1.44012
303.15 K, Wavelength=632.8 nm, x2 = 0.5952 | 1.43356
303.15 K, Wavelength=632.8 nm, x2 = 0.6016 | 1.43369
303.15 K, Wavelength=632.8 nm, x2 = 0.6788 | 1.42724
303.15 K, Wavelength=632.8 nm, x2 = 0.7835 | 1.41799
303.15 K, Wavelength=632.8 nm, x2 = 0.8184 | 1.41284
303.15 K, Wavelength=632.8 nm, x2 = 0.8473 | 1.40655
303.15 K, Wavelength=632.8 nm, x2 = 0.8719 | 1.39977
303.15 K, Wavelength=632.8 nm, x2 = 0.8926 | 1.39224
303.15 K, Wavelength=632.8 nm, x2 = 0.9106 | 1.38673
303.15 K, Wavelength=632.8 nm, x2 = 0.9254 | 1.37655
303.15 K, Wavelength=632.8 nm, x2 = 0.9303 | 1.37792
303.15 K, Wavelength=632.8 nm, x2 = 0.9391 | 1.37393
303.15 K, Wavelength=632.8 nm, x2 = 0.951 | 1.36739
303.15 K, Wavelength=632.8 nm, x2 = 0.9599 | 1.36155
303.15 K, Wavelength=632.8 nm, x2 = 0.9708 | 1.35367
303.15 K, Wavelength=632.8 nm, x2 = 0.979 | 1.34869
303.15 K, Wavelength=632.8 nm, x2 = 0.9867 | 1.34275
303.15 K, Wavelength=632.8 nm, x2 = 0.9936 | 1.3366
303.15 K, Wavelength=644 nm, x2 = 0 | 1.45075
303.15 K, Wavelength=644 nm, x2 = 0.1056 | 1.44941
303.15 K, Wavelength=644 nm, x2 = 0.2069 | 1.4478
303.15 K, Wavelength=644 nm, x2 = 0.3104 | 1.44417
303.15 K, Wavelength=644 nm, x2 = 0.4844 | 1.44075
303.15 K, Wavelength=644 nm, x2 = 0.5016 | 1.43978
303.15 K, Wavelength=644 nm, x2 = 0.5952 | 1.43321
303.15 K, Wavelength=644 nm, x2 = 0.6016 | 1.43334
303.15 K, Wavelength=644 nm, x2 = 0.6788 | 1.42689
303.15 K, Wavelength=644 nm, x2 = 0.7835 | 1.41765
303.15 K, Wavelength=644 nm, x2 = 0.8184 | 1.41249
303.15 K, Wavelength=644 nm, x2 = 0.8473 | 1.4062
303.15 K, Wavelength=644 nm, x2 = 0.8719 | 1.39943
303.15 K, Wavelength=644 nm, x2 = 0.8926 | 1.39191
303.15 K, Wavelength=644 nm, x2 = 0.9106 | 1.38639
303.15 K, Wavelength=644 nm, x2 = 0.9254 | 1.37622
303.15 K, Wavelength=644 nm, x2 = 0.9303 | 1.37759
303.15 K, Wavelength=644 nm, x2 = 0.9391 | 1.37361
303.15 K, Wavelength=644 nm, x2 = 0.951 | 1.36708
303.15 K, Wavelength=644 nm, x2 = 0.9599 | 1.36123
303.15 K, Wavelength=644 nm, x2 = 0.9708 | 1.35335
303.15 K, Wavelength=644 nm, x2 = 0.979 | 1.34838
303.15 K, Wavelength=644 nm, x2 = 0.9867 | 1.34244
303.15 K, Wavelength=644 nm, x2 = 0.9936 | 1.3363
303.15 K, Wavelength=706.5 nm, x2 = 0 | 1.44903
303.15 K, Wavelength=706.5 nm, x2 = 0.1056 | 1.44768
303.15 K, Wavelength=706.5 nm, x2 = 0.2069 | 1.44609
303.15 K, Wavelength=706.5 nm, x2 = 0.3104 | 1.44246
303.15 K, Wavelength=706.5 nm, x2 = 0.4844 | 1.43906
303.15 K, Wavelength=706.5 nm, x2 = 0.5016 | 1.4381
303.15 K, Wavelength=706.5 nm, x2 = 0.5952 | 1.43153
303.15 K, Wavelength=706.5 nm, x2 = 0.6016 | 1.43165
303.15 K, Wavelength=706.5 nm, x2 = 0.6788 | 1.4252
303.15 K, Wavelength=706.5 nm, x2 = 0.7835 | 1.41598
303.15 K, Wavelength=706.5 nm, x2 = 0.8184 | 1.41081
303.15 K, Wavelength=706.5 nm, x2 = 0.8473 | 1.40454
303.15 K, Wavelength=706.5 nm, x2 = 0.8719 | 1.39777
303.15 K, Wavelength=706.5 nm, x2 = 0.8926 | 1.39029
303.15 K, Wavelength=706.5 nm, x2 = 0.9106 | 1.38476
303.15 K, Wavelength=706.5 nm, x2 = 0.9254 | 1.37461
303.15 K, Wavelength=706.5 nm, x2 = 0.9303 | 1.37597
303.15 K, Wavelength=706.5 nm, x2 = 0.9391 | 1.37201
303.15 K, Wavelength=706.5 nm, x2 = 0.951 | 1.36548
303.15 K, Wavelength=706.5 nm, x2 = 0.9599 | 1.35966
303.15 K, Wavelength=706.5 nm, x2 = 0.9708 | 1.35178
303.15 K, Wavelength=706.5 nm, x2 = 0.979 | 1.34683
303.15 K, Wavelength=706.5 nm, x2 = 0.9867 | 1.34092
303.15 K, Wavelength=706.5 nm, x2 = 0.9936 | 1.33481
308.15 K, Wavelength=404.7 nm, x2 = 0 | 1.46397
308.15 K, Wavelength=404.7 nm, x2 = 0.1056 | 1.46262
308.15 K, Wavelength=404.7 nm, x2 = 0.2069 | 1.46101
308.15 K, Wavelength=404.7 nm, x2 = 0.3104 | 1.45847
308.15 K, Wavelength=404.7 nm, x2 = 0.4844 | 1.45365
308.15 K, Wavelength=404.7 nm, x2 = 0.5016 | 1.45268
308.15 K, Wavelength=404.7 nm, x2 = 0.5952 | 1.44587
308.15 K, Wavelength=404.7 nm, x2 = 0.6016 | 1.44608
308.15 K, Wavelength=404.7 nm, x2 = 0.6788 | 1.43943
308.15 K, Wavelength=404.7 nm, x2 = 0.7835 | 1.43059
308.15 K, Wavelength=404.7 nm, x2 = 0.8184 | 1.4247
308.15 K, Wavelength=404.7 nm, x2 = 0.8473 | 1.41822
308.15 K, Wavelength=404.7 nm, x2 = 0.8719 | 1.41127
308.15 K, Wavelength=404.7 nm, x2 = 0.8926 | 1.40352
308.15 K, Wavelength=404.7 nm, x2 = 0.9106 | 1.39814
308.15 K, Wavelength=404.7 nm, x2 = 0.9254 | 1.38807
308.15 K, Wavelength=404.7 nm, x2 = 0.9303 | 1.38901
308.15 K, Wavelength=404.7 nm, x2 = 0.9391 | 1.38539
308.15 K, Wavelength=404.7 nm, x2 = 0.951 | 1.37872
308.15 K, Wavelength=404.7 nm, x2 = 0.9599 | 1.37231
308.15 K, Wavelength=404.7 nm, x2 = 0.9708 | 1.36448
308.15 K, Wavelength=404.7 nm, x2 = 0.979 | 1.35959
308.15 K, Wavelength=404.7 nm, x2 = 0.9867 | 1.35319
308.15 K, Wavelength=404.7 nm, x2 = 0.9936 | 1.34702
308.15 K, Wavelength=435.8 nm, x2 = 0 | 1.46043
308.15 K, Wavelength=435.8 nm, x2 = 0.1056 | 1.4591
